Residue numbers refer to the chain shown, from its start. One block for each molecule: values may come before it.
Experiments:
[1] = molecular target: T1, Gallus N-acetyl-α-D-galactosaminidase (Gallus gallus, UniProt Q90744); experiment: Substrate specificity (relative activity); assay type: biochemical, Gallus domesticus; conditions: % of enzyme activity on the corresponding conjugate, 2.5 mM PNP conjugates, pH 3.5
T1 construct: the cDNA clone corresponds to the region of the mRNA encoding the mature polypeptide for the chicken α-N-acetyl-galactosaminidase; from tissue; host or cells: chicken liver
T1 sequence (Q90744 1-405 S162A): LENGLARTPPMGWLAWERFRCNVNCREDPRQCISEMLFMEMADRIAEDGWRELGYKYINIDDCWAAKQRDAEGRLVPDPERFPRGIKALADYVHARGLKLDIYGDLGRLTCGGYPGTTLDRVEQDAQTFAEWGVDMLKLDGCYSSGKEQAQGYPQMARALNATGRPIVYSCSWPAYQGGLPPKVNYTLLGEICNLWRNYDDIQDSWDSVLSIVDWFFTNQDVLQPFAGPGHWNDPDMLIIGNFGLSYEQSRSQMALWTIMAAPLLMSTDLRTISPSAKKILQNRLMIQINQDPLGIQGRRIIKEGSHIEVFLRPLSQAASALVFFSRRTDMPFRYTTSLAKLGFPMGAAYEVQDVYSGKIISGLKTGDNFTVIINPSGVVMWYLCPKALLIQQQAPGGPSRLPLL

[2] = substrate: O=[N+]([O-])c1ccc(O[C@H]2O[C@H](CO)[C@H](O)[C@H](O)[C@H]2O)cc1; experiment: Kinetic parameters (Km, turnover number) of Gallus enzyme; assay type: biochemical, Gallus domesticus; conditions: other: Table III, Example 1 preparation, 50 mM Na citrate + 1 mg/ml BSA, pH 3.5, mean of six determinations, 37.0 °C
Description: (§1) The Kms for ONP- and PNP-N-acetyl-α-D-galactosaminide were determined by varying the substrate concentration in 50 mM Na citrate+1 mg/ml BSA, pH 3.5.

[3] = substrate: CC(=O)N[C@H]1[C@@H](Oc2ccccc2[N+](=O)[O-])O[C@H](CO)[C@H](O)[C@@H]1O; experiment: as above; assay type: biochemical, Gallus domesticus; conditions: other: Table III, Example 1 preparation, 50 mM Na citrate + 1 mg/ml BSA, pH 3.5, mean of six determinations, 37.0 °C
Description: as §1

[4] = substrate: CC(=O)N[C@H]1[C@@H](Oc2ccc([N+](=O)[O-])cc2)O[C@H](CO)[C@H](O)[C@@H]1O; experiment: as above; assay type: biochemical, Gallus domesticus
Description: as §1

[5] = Enzymatic activity quantitated during the purification; assay type: biochemical; conditions: Table V, improved (batch) purification; mean from three different preps
Description: Enzymatic activity was quantitated during the purification by measuring production of p-nitrophenol (PNP) from PNP-N-acetyl-α-D-galactosaminide or o-nitrophenol (ONP) from ONP-N-acetyl-α-D-galactosaminide. Enzyme aliquots were incubated in 200 μl of 50 mM Na citrate+1 mg/ml BSA+1.0 mM PNP-N-acetyl-α-D-galactosaminide, pH 3.5, at 37° C. The reactions were quenched with 1.0 ml of 0.25M Na2 CO3 and the OD 405 nm was measured. One unit of activity was defined as 1.0 μmole of substrate hydrolyzed per minute.

[6] = Table IV, Example 1 preparation
[7] = Table VI, improved purification (Example 2)
[8] = other: Example 2 batch preparation, pH 3.5, N=3, 37.0 °C
[9] = other: Table III, Example 1 preparation, 50 mM Na citrate + 1 mg/ml BSA, pH 3.5, mean of six determinations, 37.0 °C

Molecule: O=[N+]([O-])c1ccc(O[C@@H]2O[C@H](CO)[C@@H](O)[C@H](O)[C@H]2O)cc1 [PNP-β-D-glucopyranoside]
Relative Activity [1, 6]: < 0.08% | Relative Activity [1, 7]: < 0.08%

Molecule: CC(=O)N[C@H]1[C@@H](Oc2ccc([N+](=O)[O-])cc2)O[C@H](CO)[C@@H](O)[C@@H]1O [PNP-N-acetyl-α-D-glucosaminide]
Relative Activity [1, 6]: < 0.08% | Relative Activity [1, 7]: < 0.08%

Molecule: Cc1cc(=O)oc2cc(O[C@H]3O[C@H](CO)[C@H](O)[C@H](O)[C@H]3O)ccc12 [4-MU-α-D-galactopyranoside]
Relative Activity [1, 6]: 100.00% | Relative Activity [1, 7]: 100.00%

Molecule: C[C@@H]1O[C@H](Oc2ccc([N+](=O)[O-])cc2)[C@@H](O)[C@H](O)[C@@H]1O [PNP-β-L-fucopyranoside]
Relative Activity [1, 6]: < 0.08% | Relative Activity [1, 7]: < 0.08%

Molecule: O=[N+]([O-])c1ccc(O[C@@H]2O[C@H](CO)[C@H](O)[C@H](O)[C@H]2O)cc1 [PNP-β-D-galactopyranoside]
Relative Activity [1, 6]: < 0.08% | Relative Activity [1, 7]: < 0.08%

B1: Gallus N-acetyl-α-D-galactosaminidase (Gallus gallus) (protein)
chain: T1 sequence (Q90744 1-405 S162A)
notes: the cDNA clone corresponds to the region of the mRNA encoding the mature polypeptide for the chicken α-N-acetyl-galactosaminidase; from tissue; host or cells: chicken liver
Km [2]: 10700 µM | kcat [2]: 201 Moles of substrate hydrolyzed per mole of enzyme per minute | Km [3]: 2400 µM | kcat [3]: 637 Moles of substrate hydrolyzed per mole of enzyme per minute | Km [4, 8]: 0.86, S.D.=0.03 mM | kcat [4, 8]: 3318, S.D.=118.5 moles substrate/mole enzyme/minute | Km [4, 9]: 1190 µM | kcat [4, 9]: 2370 Moles of substrate hydrolyzed per mole of enzyme per minute

B2: Affinity Concentrate: purified α-N-acetyl-galactosaminidase after affinity column and concentration (Example 2) (protein, UniProt Q90744 1-405, looked up)
Alpha-N-acetylgalactosaminidas …: T1 sequence (Q90744 1-405 S162A) with A162S
Specific Activity [5]: 71.03 µmol/mg/min

Now from value to molecule:

Relative Activity [1, 6]: 100.00% | Relative Activity [1, 7]: 100.00%
Molecule: CC(=O)N[C@H]1[C@@H](Oc2ccc([N+](=O)[O-])cc2)O[C@H](CO)[C@H](O)[C@@H]1O [PNP-N-acetyl-α-D-galactosaminide]

Relative Activity [1, 6]: < 0.08% | Relative Activity [1, 7]: < 0.08%
Molecule: CC(=O)N[C@H]1[C@H](Oc2ccc([N+](=O)[O-])cc2)O[C@H](CO)[C@H](O)[C@@H]1O [PNP-N-acetyl-β-D-galactosaminide]

Relative Activity [1, 6]: < 0.08% | Relative Activity [1, 7]: < 0.08%
Molecule: CC(=O)N[C@H]1[C@H](Oc2ccc([N+](=O)[O-])cc2)O[C@H](CO)[C@@H](O)[C@@H]1O [PNP-N-acetyl-β-D-glucosaminide]

Relative Activity [1, 6]: < 0.08% | Relative Activity [1, 7]: < 0.08%
Molecule: O=[N+]([O-])c1ccc(O[C@@H]2OC[C@H](O)[C@H](O)[C@H]2O)cc1 [PNP-α-L-arabinopyranoside]

Relative Activity [1, 6]: < 0.08% | Relative Activity [1, 7]: < 0.08%
Molecule: C[C@@H]1O[C@@H](Oc2ccc([N+](=O)[O-])cc2)[C@@H](O)[C@H](O)[C@@H]1O [PNP-α-L-fucopyranoside]

Relative Activity [1, 6]: < 0.01% | Relative Activity [1, 7]: < 0.01%
Molecule: CC(=O)NC1C(O)CC(Oc2ccc3c(C)cc(=O)oc3c2)(C(=O)O)OC1C(O)C(O)CO (stereo not drawn) [4-MU-N-acetyl-α-neuraminic acid]

Relative Activity [1, 6]: < 0.08% | Relative Activity [1, 7]: < 0.08%
Molecule: O=[N+]([O-])c1ccc(O[C@H]2O[C@H](CO)[C@@H](O)[C@H](O)[C@H]2O)cc1 [PNP-α-D-glucopyranoside]

From US5610063A, “cDNA for α-N-acetyl-galactosaminidase from Gallus domesticus” (Curators of the University of Missouri, priority 1995, dated 1997)
